In patent US7893288B2, “Poly-halogenated triazapentadiene compositions” (Board of Regents, The University of Texas System, priority 2007, dated 2011):
“And” between values parts separate entries of the source, which are not always exact repeats. Identical values can stand only once.

Columns and labels:
Assay type in all cases: cell-based
[1] = system: Staphylococcus aureus (ATCC 25923); assay: Disk sensitivity test (modified Kirby-Bauer), S. aureus;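 note: Compound-loaded filter disks on LB agar plates seeded with a confluent bacterial lawn, compound dissolved in DMSO, plates kept overnight at 37 °C, then inhibition zone around disk measured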
Experimental: (§1) Filter disks were provided as sterile filter paper (about 6 mm in diameter) and spotted with 20 μL of a selected compound. Each compound was initially dissolved in dimethylsulfoxide (DMSO); any subsequent dilutions were also made in DMSO. Each filter was placed on an LB agar plate spread with 100 μL of a bacterial culture that had been grown overnight in suitable LB broth. Plates were incubated overnight at 37° C., after which, the extent of growth inhibition around each filter disk was measured. Bacterial strains included Staphylococcus aureus (ATCC 25923), Pseudomonas aeruginosa PAO1, Bacillus subtilis W168 and Escherichia coli HB101. […] The latter two strains are non-pathogenic Gram-positive and Gram-negative bacterial strains, respectively.

Bacillus subtilis W168 [2] = assay: Disk sensitivity test (modified Kirby-Bauer), B. subtilis;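 note: Compound-loaded filter disks on LB agar plates seeded with a bacterial lawn, plates held overnight at 37 °C, then the clear zone around each disk measured, compounds in DMSO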
Experimental: as §1

[3] = system: Pseudomonas aeruginosa PAO1; assay: Disk sensitivity test (modified Kirby-Bauer), P. aeruginosa;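 note: Compound-loaded filter disks on LB agar lawns, DMSO as solvent, zone of inhibition around each disk read after overnight incubation at 37 °C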
Escherichia coli HB101 [4] = assay: Disk sensitivity test (modified Kirby-Bauer), E. coli;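 note: filter disk loaded with compound in DMSO laid on an LB agar bacterial lawn, kept overnight at 37 °C, then the inhibition zone around the disk is measured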
Experimental: as §1

[5] = system: Staphylococcus aureus (ATCC 25923); assay: Minimum inhibitory concentration in LB broth, S. aureus
Bacillus subtilis W168 [6] = assay: Minimum inhibitory concentration in LB broth, B. subtilis
[7] = system: Pseudomonas aeruginosa PAO1; assay: Minimum inhibitory concentration in LB broth, P. aeruginosa
Escherichia coli HB101 [8] = assay: Minimum inhibitory concentration in LB broth, E. coli;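 note: broth dilution MIC, test compounds first taken up in DMSO, then serially diluted in LB medium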
[9] = system: Gram positive and Gram negative bacteria; assay: Antimicrobial activity, summary of TABLES 16-18
Experimental: The new class of fluorinated triazapentadiene compounds with and without metal complexation as described herein were analyzed for antibacterial activity against several bacterial strains (both Gram positive and Gram negative). Methods for antimicrobial analysis included a modified Kirby-Bauer method and a determination of their minimum inhibitory concentrations. In brief, the modified Kirby-Bauer method relied on placement of a filter disk impregnated with a desired compound on a solid growth medium. Bacteria were grown to a confluent lawn and the extent of growth inhibition was measured (e.g., as an extent/percentage of a clear zone on the disk and/or solid medium).
For MIC assessment, compounds were initially dissolved in DMSO and serial dilutions of soluble compounds were made in LB broth.

[10] = efficacy per mole from MIC values

With `Fc1c(F)c(F)c(N=C(N=C(Nc2c(F)c(F)c(F)c(F)c2F)C(F)(F)C(F)(F)C(F)(F)F)C(F)(F)C(F)(F)C(F)(F)F)c(F)c1F` [[N{(C3F7)C(C6F5)N}2]H] the “Diameter of the zone of growth inhibition” value ([1]; 5.7 × 10^0 mM) was 37.5 mm, the “Diameter of the zone of growth inhibition” value ([1]; 5.7 × 10^1 mM) was 75.0 mm and the “Diameter of the zone of growth inhibition” value ([1]; 5.7 × 10^−1 mM) was 40.0 mm. The “Diameter of the zone of growth inhibition” value ([1]; 5.7 × 10^−2 mM) was 19.0 mm, the “Diameter of the zone of growth inhibition” value ([1]; 5.7 × 10^−3 mM) was 9.0 mm and the “Diameter of the zone of growth inhibition” value ([1]; 5.7 × 10^−4 mM) was 6.0 (NZ) mm. For the same compound, the “Diameter of the zone of growth inhibition” value ([1]; 5.7 × 10^−5 mM) was 6.0 (NZ) mm, the “Diameter of the zone of growth inhibition” value ([1]; 5.7 × 10^−6 mM) was 6.0 (NZ) mm and the “Diameter of the zone of growth inhibition” value ([1]; 5.7 × 10^−7 mM) was 6.0 (NZ) mm. The “Diameter of the zone of growth inhibition” value (Bacillus subtilis W168 [2]; 5.7 × 10^0 mM) was 39.0 mm, the “Diameter of the zone of growth inhibition” value (Bacillus subtilis W168 [2]; 5.7 × 10^1 mM) was 71.0 mm and the “Diameter of the zone of growth inhibition” value (Bacillus subtilis W168 [2]; 5.7 × 10^−1 mM) was 47.0 mm. The “Diameter of the zone of growth inhibition” value (Bacillus subtilis W168 [2]; 5.7 × 10^−2 mM) was 22.0 mm, the “Diameter of the zone of growth inhibition” value (Bacillus subtilis W168 [2]; 5.7 × 10^−3 mM) was 10.0 mm and the “Diameter of the zone of growth inhibition” value (Bacillus subtilis W168 [2]; 5.7 × 10^−4 mM) was 8.0 mm. For the same compound, the “Diameter of the zone of growth inhibition” value (Bacillus subtilis W168 [2]; 5.7 × 10^−5 mM) was 6.0 (NZ) mm, the “Diameter of the zone of growth inhibition” value (Bacillus subtilis W168 [2]; 5.7 × 10^−6 mM) was 6.0 (NZ) mm and the “Diameter of the zone of growth inhibition” value (Bacillus subtilis W168 [2]; 5.7 × 10^−7 mM) was 6.0 (NZ) mm. For the same compound, the “Diameter of the zone of growth inhibition” value ([3]; 5.7 × 10^0 mM) was 8.0 mm, the “Diameter of the zone of growth inhibition” value ([3]; 5.7 × 10^1 mM) was 9.0 mm and the “Diameter of the zone of growth inhibition” value ([3]; 5.7 × 10^−1 mM) was 8.0 mm. The “Diameter of the zone of growth inhibition” value ([3]; 5.7 × 10^−2 mM) was 8.0 mm, the “Diameter of the zone of growth inhibition” value ([3]; 5.7 × 10^−3 mM) was 7.0 mm and the “Diameter of the zone of growth inhibition” value (Escherichia coli HB101 [4]; 5.7 × 10^0 mM) was 9.0 mm. For the same compound, the “Diameter of the zone of growth inhibition” value (Escherichia coli HB101 [4]; 5.7 × 10^1 mM) was 9.5 mm, the “Diameter of the zone of growth inhibition” value (Escherichia coli HB101 [4]; 5.7 × 10^−1 mM) was 9.0 mm and the “Diameter of the zone of growth inhibition” value (Escherichia coli HB101 [4]; 5.7 × 10^−2 mM) was 8.5 mm. For the same compound, the “Diameter of the zone of growth inhibition” value (Escherichia coli HB101 [4]; 5.7 × 10^−3 mM) was 7.0 mm, the MIC [5] was 1.57 μg/ml and 2.12 × 10^−3 mM and the “Relative to AgNO3” value [5, 10] was 34.71. The MIC (Bacillus subtilis W168 [6]) was 1.57 μg/ml and 2.12 × 10^−3 mM, the “Relative to AgNO3” value (Bacillus subtilis W168 [6]; [10]) was 69.34 and the MIC [7] was 2643.48 μg/ml and 3.58 mM. For the same compound, the “Relative to AgNO3” value [7, 10] was 5.14 × 10^−3, the MIC (Escherichia coli HB101 [8]) was 2643.48 μg/ml and 3.58 mM and the “Relative to AgNO3” value (Escherichia coli HB101 [8]; [10]) was 1.65 × 10^−2. For the same compound, the “antimicrobial activity (in words)” value [9] was “Effective”.
